# Test results taken from patent US9078907B2, “Immunoregulator compounds” (Universita Degli Studi Di Roma “Tor Vergata”, priority 2001, dated 2015).
# What was measured:
# [1] = test system: Mycobacterium tuberculosis; assay: Dose dependent effect of S1P on MTB replication in macrophages from peripheral blood monocytes; assay type: cell-based; conditions: human monocyte-derived macrophages, 4 donors, 0.5, 5 or 50 μM, fifth day after infection
# Procedure: Peripheral blood mononuclear cells were isolated from human Buffy coat blood preparations by gradient centrifugation and suspended at 5×10^6/ml in complete medium [RPMI 1640 (Gibco BRL) supplemented with 10% fetal bovine serum (Gibco BRL), 5 mM L-glutamine and Gentamicine (5 μg/ml)]. Monocytes were then separated by adherence for 1 hour in polystyrene 75 cm^2 flasks (Corning, Cambridge, Mass.). After incubation, non-adherent cells were removed by three washes with warm RPMI 1640. […] Finally, adherent monocytes were collected after 15 minute incubation at 4° C. in the presence of 5 mM EDTA in PBS. Cells then were washed, incubated in complete medium for 5-7 days in 24 well plate at the concentration of 10^6 cells/ml to get monocyte-derived macrophages. […]
# Sphingosine 1-phosphate (S-1P), used at the concentrations of 0.5, 5 or 50 μM inhibits intracellular replication of Mycobacterium tuberculosis in human monocyte-derived macrophages (MDM) from peripheral blood of healthy donors. Results are obtained from experiments performed on MDM from 4 different donors and are expressed as the means of the percentages of mycobacterial killing±standard error at the fifth day after infection. Percentage of mycobacterial killing is calculated by using the following formula: [1−(CFU from infected and S-1P stimulated MDM/CFU from infected unstimulated MDM)]×100.
# macrophages = assay: ROI generation by dichlorofluorescein (DCF) flow cytometry; assay type: cell-based, human
# Procedure: Because dichloro fluorescein (DCF) is a fluorochrome obtained from reaction of non fluorescent 2, 7-dichloro fluorescein diacetate (DCFH) with various oxidants, analysis thereof is used to detect cellular oxidative stress and amount of oxygen reactive intermediates (ROI) produced by phagocytic cells. In the used model, this analysis is employed in order to monitor the D-erythro-sphingosine 1-phosphate (S1P) modulated ROI production from macrophages. Macrophages were incubated for 90 minutes with sphingosine 1-phosphate at 0.5 μM, 5 μM, 10 μM and 50 μM concentrations. After the incubation 100 μl of 0.4 μM DCFH (Calbiochem) were added and incubated for at least 30 minutes. Finally, cells were washed with PBS and analysed using FACScan flow cytometer from Becton Dickinson.
# H37Rv MTB = assay: Mycobacterial viability (CFU) in MTB infected monocyte derived macrophages; assay type: cell-based, Mycobacterium tuberculosis; conditions: MTB MOI 1:1, S1P 5 μM, 5 days after the infection, statistically significant
# Procedure: In order to evaluate the bacterial viability, monocyte derived macrophages were infected for 3 hours with MTB at 1:1 macrophage/bacterium infection ratio and then treated with S1P (5 μM). At time 0(just after infection) and after 2 and 5 days the plates containing infected cellular cultures were centrifuged at 2000 RPM for 10 minutes and the supernatant was discarded. Then 1 ml PBS and 0.1% saponin were added to each well and the contents were incubated for 20 minute at 37° C. After incubation cellular lysates were sonicated for 20 seconds in such a way to break any possible bacterial aggregates. Lysates thus obtained were diluted in sterile saline 1:100, 1:1000, 1:10000 with addition of 0.01% Tween 80 and plated on Middlebrook 7H10 (Difco). Plates were incubated at 37° C. for about one month and colonies enumerated.
# Based on the observations about the possible antimicrobial role of PLD and S1P during Mycobacterium tuberculosis infection it was investigated whether S1P macrophage exogenous stimulation and PLD activation were associated to a reduction of mycobacterial viability. To that object, monocytes were infected for three hours with H37Rv MTB at a multiplicity of infection of 1 bacillus for 1 cell. […]
# Mycobacterium smegmatis = assay: Colony forming units of M. smegmatis in differentiated THP-1 cells; assay type: cell-based; conditions: THP-1 macrophage cell line, MOI 50:1, 5 μM, 1, 12 and 24 hours
# Procedure: Human monocytic THP-1 leukemia line cells were used in this example as a model for macrophage response. In order to obtain macrophage phenotype, 5×10^5/ml THP-1 cells were induced to differentiate by 48 hours incubation in the presence of 20 ng/ml Phorbol Myristate Acetate (PMA). Differentiated THP-1 cells (dTHP-1) were then centrifuged three times and suspended in complete medium [RPMI 1640 (Gibco BRL) supplemented with 10% fetal bovine serum (Gibco BRL), 5 mM L-glutamine (Invitrogen), 1 mM sodium pyruvate (Gibco BRL) and non-essential amino acids (Euroclone)]. dTHP-1 were then infected for 3 hours with M. smegmatis at the multiplicity of infection of bacterium/cell 50:1. Following infection cells were washed three times with RPMI 1640 and incubated in complete medium at 37° C. for further 1, 12 and 24 hours in the presence or absence of sphingosine-1 phosphate used at the concentration of 5 μM.
# In order to assess the role of macrophage PLD activity in sphingosine 1-phosphate induced mycobacterial growth control, following the infection the cells were cultured in the presence of various concentrations of ethanol (0.3%, 0.03%, 0.003%) or 10 nM calphostin C. […] Inhibiting activity of calphostin C is exploited by targeting PLD catalytic domain (Sciorra V. A., Hammond S. M., Morris A. J. Potent direct inhibition of mammalian phospholipase D isoenzymes by calphostin c. Biochemistry 2001; 40: 2640-46). Just after the infection and at the indicated time points, cells were 1) lysed using cold PBS containing 0.1% saponin (Sigma, MA, USA), ii) serially diluted in PBS containing 0.01% Tween-80 (Merck, Darmstadt, Germany) and iii) plated in triplicate in Middlebrook 7H10 medium (Becton Dickinson, MD, USA) supplemented with 10% OADC formulation (0.5 mg/ml oleic acid, 50 mg/ml albumin, 20 mg/ml dextrose, 0.04 mg/ml catalase and 8.5 mg/ml sodium chloride). M. smegmatis colonies were enumerated after incubation for 3 days at 37° C.
smiles,measurement,setting,value
"CCCCCCCCCCCCC/C=C/[C@@H](O)[C@@H](N)COP(=O)(O)O [S1P, D-erythro-sphingosine 1-phosphate]",intracellular replication of Mycobacterium tuberculosis (percentage of mycobacterial killing),[1],inhibits
same,ROI production by macrophages over the time,"macrophages; 5 μM S1P, DCF positive response after 30 and 90 minutes",increases progressively over the time
same,S1P dose giving maximum DCF positive response,"macrophages; scalar S1P doses, % DCF positive cells",5-10 μm
same,CFU number after S1P treatment,H37Rv MTB,reduced
same,intracellular replication of Mycobacterium smegmatis (CFU),Mycobacterium smegmatis,inhibits
